Where two headings read alike, the source gives them in different places. Blank lines part the entries; values can stand above or below the compound they belong to.
Experiments:
[1] = for Water in DEB / AcOH in DEB / AcOH in water (final in DEB) / D = AcOH in DEB/AcOH in water: 25° C., single extraction
[2] = Distribution of ethanol and isobutanol between water and DEB phases; format: physicochemical; conditions: for Amount of EtOH in water (final) / D = conc. of EtOH in DEB/conc. of EtOH in water / Amount of EtOH in DEB (final) / Distribution coefficient of isobutanol (DEB/water) / Amount of iBuOH in water (final) / Amount of iBuOH in DEB (final): single extraction; for Amount of EtOH in DEB (final) / Amount of iBuOH in DEB (final): mass balance
Description: The amount of ethanol and isobutanol in water phase was measured using HPLC (see above for details). The concentrations of ethanol taken were: 8, 6, 3, 2, 1 and 0.5 wt %.
Distribution coefficient is reported on the basis of HPLC results of aqueous phase and that of mass balance of both the phases. Experiments are currently underway to determine the amount of ethanol, iso butanol in DEB phase. Gas chromatography will be used to quantify the amount of ethanol and isobutanol present in the DEB phase. Water measurements will be done using a Karl Fischer apparatus.
Here also, distribution coefficient is reported on the basis of HPLC results of aqueous phase and that of mass balance of both the phase.

[3] = Distribution of hydroxymethylfurfural and furfural between water and DEB phases; format: physicochemical; conditions: 25° C., single extraction; for Amount of HMF in DEB phase (g) (final in DEB phase) / Amount of furfural in DEB phase (g) (final in DEB phase): mass balance
Description: The amounts of hydroxymethylfurfural and furfural in water phase were measured
using HPLC (see above for details). […] Distribution coefficient is reported on the basis of HPLC results of aqueous phase and that of mass balance of both the phases. The amount of hydroxymethylfurfural in DEB phase may be quantified using gas chromatography. Water measurements of the separated DEB phase containing hydroxymethylfurfural may be carried out using a Karl Fischer apparatus.
Distribution coefficient is reported on the basis of HPLC results of aqueous phase and that of mass balance of both the phases. The amount of furfural in DEB phase may be quantified using gas chromatography. Water measurements of the separated DEB phase containing furfural may be carried out using a Karl Fischer apparatus.

[4] = cloud-point
[5] = 4.91 g DEB, 0.33 g AcOH initially in 4.1 g water
[6] = 5.8 g DEB, 0.17 g AcOH initially in 4.2 g water
[7] = 6.5 g DEB, 0.07 g AcOH initially in 4.3 g water
[8] = 4.63 g DEB, 0.99 g EtOH initially in 4.62 g water
[9] = 4.71 g DEB, 0.31 g EtOH initially in 4.70 g water
[10] = 4.85 g DEB, 0.16 g EtOH initially in 4.86 g water
[11] = 4.92 g DEB, 0.11 g EtOH initially in 4.89 g water
[12] = 4.97 g DEB, 0.06 g EtOH initially in 4.98 g water
[13] = 5.02 g DEB, 0.03 g EtOH initially in 5.03 g water
[14] = 4.76 g DEB, 0.26 g iBuOH initially in 4.74 g water
[15] = 4.88 g DEB, 0.13 g iBuOH initially in 4.89 g water
[16] = 4.93 g DEB, 0.071 g iBuOH initially in 4.92 g water
[17] = 5.08 g DEB, 0.028 g iBuOH initially in 5.03 g water
[18] = 5.01 g DEB, 0.0132 g HMF initially in 5.01 g water
[19] = 5.01 g DEB, 0.0512 g HMF initially in 5.11 g water
[20] = 5.02 g DEB, 0.0251 g HMF initially in 5.03 g water
[21] = 4.98 g DEB, 0.0491 g furfural initially in 5.01 g water
[22] = 5.02 g DEB, 0.0242 g furfural initially in 4.98 g water
[23] = 5.11 g DEB, 0.0141 g furfural initially in 5.05 g water

Compound: CCO [ethanol]
Amount of EtOH in water (final) [2, 8]: 0.51 grams | D = conc. of EtOH in DEB/conc. of EtOH in water [2, 8]: 0.94 | Amount of EtOH in DEB (final) [2, 8]: 0.48 grams | Amount of EtOH in water (final) [2, 9]: 0.15 grams | D = conc. of EtOH in DEB/conc. of EtOH in water [2, 9]: 1.06 | Amount of EtOH in DEB (final) [2, 9]: 0.16 grams | Amount of EtOH in water (final) [2, 10]: 0.073 grams | D = conc. of EtOH in DEB/conc. of EtOH in water [2, 10]: 1.2 | Amount of EtOH in DEB (final) [2, 10]: 0.087 grams | Amount of EtOH in water (final) [2, 11]: 0.052 grams | D = conc. of EtOH in DEB/conc. of EtOH in water [2, 11]: 1.11 | Amount of EtOH in DEB (final) [2, 11]: 0.058 grams | Amount of EtOH in water (final) [2, 12]: 0.031 grams | D = conc. of EtOH in DEB/conc. of EtOH in water [2, 12]: 0.93 | Amount of EtOH in DEB (final) [2, 12]: 0.029 grams | Amount of EtOH in water (final) [2, 13]: 0.014 grams | D = conc. of EtOH in DEB/conc. of EtOH in water [2, 13]: 1.16 | Amount of EtOH in DEB (final) [2, 13]: 0.016 grams

Compound: CC(=O)O [acetic acid]
AcOH in DEB [1, 5]: 0.171 grams | AcOH in water (final in DEB) [1, 5]: 0.163 grams | D = AcOH in DEB/AcOH in water [1, 5]: 1.1 | AcOH in DEB [1, 6]: 0.088 grams | AcOH in water (final in DEB) [1, 6]: 0.082 grams | D = AcOH in DEB/AcOH in water [1, 6]: 1.08 | AcOH in DEB [1, 7]: 0.033 grams | AcOH in water (final in DEB) [1, 7]: 0.034 grams | D = AcOH in DEB/AcOH in water [1, 7]: 0.98

Compound: O=Cc1ccco1 [furfural]
Amount of furfural in water phase (g) (final) [3, 21]: 0.0249 g | D = conc. of furfural in DEB/conc. of furfural in water [3, 21]: 0.98 | Amount of furfural in DEB phase (g) (final in DEB phase) [3, 21]: 0.0242 g | Amount of furfural in water phase (g) (final) [3, 22]: 0.0161 g | D = conc. of furfural in DEB/conc. of furfural in water [3, 22]: 0.91 | Amount of furfural in DEB phase (g) (final in DEB phase) [3, 22]: 0.0088 g | Amount of furfural in water phase (g) (final) [3, 23]: 0.0069 g | D = conc. of furfural in DEB/conc. of furfural in water [3, 23]: 1.03 | Amount of furfural in DEB phase (g) (final in DEB phase) [3, 23]: 0.0071 g

Compound: CCCCOCCOCCOCCCC [DEB, diethylene glycol dibutyl ether]
DEB solubility in water [4]: less than 10 ppm

Continued, values first:

Water in DEB [1, 5]: 300 µg | Water in DEB [1, 6]: 100 µg | Water in DEB [1, 7]: 90 µg | water content in the DEB phase ([1]; after contact experiment with acetic acid solutions): less than 300 ppm
Compound: water

measured distribution coefficients ([2]; 5, 3, 2, and 1 wt % of isobutanol): 2.5-3.5 | concentration in DEB relative to concentration in water at equilibrium ([2]; DEB and water phases in equilibrium): 2-3 times | Distribution coefficient of isobutanol (DEB/water) [2, 14]: 2.71 | Distribution coefficient of isobutanol (DEB/water) [2, 15]: 3.33 | Distribution coefficient of isobutanol (DEB/water) [2, 16]: 2.72 | Distribution coefficient of isobutanol (DEB/water) [2, 17]: 3.59 | Amount of iBuOH in water (final) [2, 14]: 0.07 grams | Amount of iBuOH in DEB (final) [2, 14]: 0.19 grams | Amount of iBuOH in water (final) [2, 15]: 0.03 grams | Amount of iBuOH in DEB (final) [2, 15]: 0.10 grams | Amount of iBuOH in water (final) [2, 16]: 0.018 grams | Amount of iBuOH in DEB (final) [2, 16]: 0.053 grams | Amount of iBuOH in water (final) [2, 17]: 0.0061 grams | Amount of iBuOH in DEB (final) [2, 17]: 0.0219 grams
Compound: CC(C)CO [isobutanol]

Amount of HMF in water phase (g) (final) [3, 18]: 0.0083 g | D = conc. of HMF in DEB/conc. of HMF in water [3, 18]: 0.61 | Amount of HMF in DEB phase (g) (final in DEB phase) [3, 18]: 0.0050 g | Amount of HMF in water phase (g) (final) [3, 19]: 0.0321 g | D = conc. of HMF in DEB/conc. of HMF in water [3, 19]: 0.59 | Amount of HMF in DEB phase (g) (final in DEB phase) [3, 19]: 0.0191 g | Amount of HMF in water phase (g) (final) [3, 20]: 0.0161 g | D = conc. of HMF in DEB/conc. of HMF in water [3, 20]: 0.54 | Amount of HMF in DEB phase (g) (final in DEB phase) [3, 20]: 0.0088 g
Compound: O=Cc1ccc(CO)o1 [hydroxymethylfurfural]

— US8835660B2, “Method for extracting organic compounds from aqueous mixtures” (The Regents of the University of California, priority 2010, dated 2014)
